Source: ChEMBL document CHEMBL1131902, “Reversal of resistance in multidrug resistance protein (MRP1)-overexpressing cells by LY329146” (Bioorg Med Chem Lett, 1999)
Converted amounts (≈) assume the structure as drawn. Blank lines part the entries; values can stand above or below the compound they belong to.

How the values were obtained:
HL-60 [1] = test: Ability to inhibit 50 nM Leukotriene C4 (LTC4) uptake into HL60/ADR membrane vesicles; type: functional, cell-based; conditions: Homo sapiens
HeLa [2] = test: Cytotoxicity tested against Hela T5 cells at 1 uM dose of LY-329146; type: functional, cell-based; conditions: Homo sapiens
HeLa [3] = test: Ratio of IC50 of oncolytic and its modulator against Hela C1 cells at 2.5 uM dose of LY-329146; type: functional, Homo sapiens
HeLa [4] = test: Cytotoxicity tested against Hela C1 cells at 1 uM dose of LY-329146; type: functional, cell-based; conditions: Homo sapiens
HeLa [5] = test: Ratio of IC50 of oncolytic and its modulator against Hela T5 cells at 1 uM dose of LY-329146; type: functional, Homo sapiens
HeLa [6] = test: Cytotoxicity tested against Hela T5 cells at 2.5 uM dose of LY-329146; type: functional, cell-based; conditions: Homo sapiens
HeLa [7] = test: Cytotoxicity tested against Hela C1 cells at 2.5 uM dose of LY-329146; type: functional, cell-based; conditions: Homo sapiens
HeLa [8] = test: Ratio of IC50 of oncolytic and its modulator against Hela T5 cells at 2.5 uM dose of LY-329146; type: functional, Homo sapiens
HeLa [9] = test: Ratio of IC50 of oncolytic and its modulator against Hela C1 cells at 1 uM dose of LY-329146; type: functional, Homo sapiens
HL-60 [10] = test: Ability to enhance the cytotoxicity of doxorubicin against […] HL60/ADR cell line expressed as reversal factor (RF) at 5 uM; type: functional, Homo sapiens
HL-60 [11] = test: Cytotoxicity tested against drug resistant HL60/ADR cell line at 5 uM dose of LY-117018; type: functional, cell-based; conditions: Homo sapiens
HL-60 [12] = test: Cytotoxicity tested against drug resistant HL60/ADR cell line at 1 uM dose of LY-117018; type: functional, cell-based; conditions: Homo sapiens
HL-60 [13] = test: Ability to enhance the cytotoxicity of doxorubicin against […] HL60/ADR cell line expressed as reversal factor (RF) at 1 uM; type: functional, Homo sapiens
HeLa [14] = test: Cytotoxicity tested against Hela C1 cells; type: functional, cell-based; conditions: Homo sapiens
HeLa [15] = test: Cytotoxicity tested against Hela T5 cells; type: functional, cell-based; conditions: Homo sapiens
HL-60 [16] = test: Cytotoxicity against drug resistant HL60/ADR cell line at 1 uM dose of LY-329146; type: functional, cell-based; conditions: Homo sapiens
HL-60 [17] = test: Cytotoxicity tested against HL60/Vinc cell line at 1 uM dose of LY-329146 at 1 uM; type: functional, cell-based; conditions: Homo sapiens
HL-60 [18] = test: Cytotoxicity tested against drug sensitive HL60/S cell line at 1 uM dose of LY-329146; type: functional, cell-based; conditions: Homo sapiens
HL-60 [19] = test: Cytotoxicity against HL60/Vinc cell line at 0.5 uM dose of LY-329146; type: functional, cell-based; conditions: Homo sapiens
HL-60 [20] = test: Cytotoxicity tested against drug resistant HL60/ADR cell line at 5 uM dose of LY-329146; type: functional, cell-based; conditions: Homo sapiens
HL-60 [21] = test: Cytotoxicity tested against HL60/Vinc cell line at 5 uM dose of LY-329146; type: functional, cell-based; conditions: Homo sapiens
HL-60 [22] = test: Cytotoxicity tested against drug resistant HL60/ADR cell line at 0.5 uM dose of LY-329146; type: functional, cell-based; conditions: Homo sapiens
HL-60 [23] = test: Cytotoxicity against drug sensitive HL60/S cell line at 0.5 uM dose of LY-329146; type: functional, cell-based; conditions: Homo sapiens
HL-60 [24] = test: Cytotoxicity tested against drug sensitive HL60/S cell line at 5 uM dose of LY-329146; type: functional, cell-based; conditions: Homo sapiens
HL-60 [25] = test: Cytotoxicity against drug resistant HL60/ADR cell line; type: functional, cell-based; conditions: Homo sapiens
HL-60 [26] = test: Cytotoxicity tested against HL60/Vinc cell line; type: functional, cell-based; conditions: Homo sapiens
HL-60 [27] = test: Cytotoxicity tested against drug sensitive HL60/S cell line; type: functional, cell-based; conditions: Homo sapiens

IC50 (HL-60 [1]): 0.5 µg/mL (≈ 0.971 µM)
SMILES: CN(C)C(=O)CCSC(SCCC(=O)O)c1cccc(/C=C/c2ccc3ccc(Cl)cc3n2)c1 (configuration not stated) [MK-571]

SMILES: CC[C@]1(O)CC2CN(CCc3c([nH]c4ccccc34)[C@@](C(=O)OC)(c3cc4c(cc3OC)N(C=O)C3C45CCN4CC=C[C@@](CC)(C(OC(C)=O)[C@]3(O)C(=O)OC)[C@H]45)C2)C1.CS(=O)(=O)N(c1ccc(-c2sc3cc(O)ccc3c2C(=O)c2ccc(OCCN3CCCCC3)cc2)cc1)S(C)(=O)=O (some centres not stated)
IC50 (HeLa [2]): 0.031 µg/mL
RF (HeLa [3]): 2.8
IC50 (HeLa [4]): 0.007 µg/mL
RF (HeLa [5]): 1.6
IC50 (HeLa [6]): 0.013 µg/mL
IC50 (HeLa [7]): 0.005 µg/mL
RF (HeLa [8]): 3.9
RF (HeLa [9]): 2

SMILES: COc1cccc2c1C(=O)c1c(O)c3c(c(O)c1C2=O)C[C@@](O)(C(=O)CO)C[C@@H]3O[C@H]1C[C@H](N)[C@H](O)[C@H](C)O1.O=C(c1ccc(OCCN2CCCC2)cc1)c1c(-c2ccc(O)cc2)sc2cc(O)ccc12
RF (HL-60 [10]): 3
IC50 (HL-60 [11]): 1 µg/mL
IC50 (HL-60 [12]): 3.2 µg/mL
RF (HL-60 [13]): 1

SMILES: CC[C@]1(O)C[C@H]2CN(CCc3c([nH]c4ccccc34)[C@@](C(=O)OC)(c3cc4c(cc3OC)N(C=O)[C@H]3[C@@](O)(C(=O)OC)[C@H](OC(C)=O)[C@]5(CC)C=CCN6CC[C@]43[C@@H]65)C2)C1 [VINCRISTINE]
IC50 (HeLa [14]): 0.014 µg/mL (≈ 0.017 µM)
IC50 (HeLa [15]): 0.051 µg/mL (≈ 0.0618 µM)

SMILES: COc1cccc2c1C(=O)c1c(O)c3c(c(O)c1C2=O)C[C@@](O)(C(=O)CO)C[C@@H]3O[C@H]1C[C@H](N)[C@H](O)[C@H](C)O1.CS(=O)(=O)N(c1ccc(-c2sc3cc(O)ccc3c2C(=O)c2ccc(OCCN3CCCCC3)cc2)cc1)S(C)(=O)=O
IC50 (HL-60 [16]): 1.11 µg/mL
IC50 (HL-60 [17]): 0.444 µg/mL
IC50 (HL-60 [18]): 0.018 µg/mL
IC50 (HL-60 [19]): 1.44 µg/mL
IC50 (HeLa [2]): 1.06 µg/mL
IC50 (HL-60 [20]): 0.224 µg/mL
IC50 (HeLa [4]): 0.315 µg/mL
IC50 (HL-60 [21]): 0.027 µg/mL
IC50 (HL-60 [22]): 1.71 µg/mL
IC50 (HL-60 [23]): 0.023 µg/mL
IC50 (HeLa [6]): 0.241 µg/mL
IC50 (HeLa [7]): 0.213 µg/mL
IC50 (HL-60 [24]): 0.011 µg/mL

SMILES: COc1cccc2c1C(=O)c1c(O)c3c(c(O)c1C2=O)C[C@@](O)(C(=O)CO)C[C@@H]3O[C@H]1C[C@H](N)[C@H](O)[C@H](C)O1 [DOXORUBICIN]
IC50 (HL-60 [25]): 2.97 µg/mL (≈ 5.46 µM)
IC50 (HL-60 [26]): 1.88 µg/mL (≈ 3.46 µM)
IC50 (HL-60 [27]): 0.028 µg/mL (≈ 0.0515 µM)

IC50 (HL-60 [1]): 0.8 µg/mL (≈ 1.27 µM)
SMILES: CS(=O)(=O)N(c1ccc(-c2sc3cc(O)ccc3c2C(=O)c2ccc(OCCN3CCCCC3)cc2)cc1)S(C)(=O)=O
